Results from paper PMC3262960 (ACS Chemical Biology, 2011).
Like-named read-outs stand apart in the source and are kept apart here.

Experiments:
PAD2 [1] = target: T1, PAD2 (Homo sapiens, UniProt Q9Y2J8); assay: Substrate activity with PAD2
PAD1 [2] = target: T2, PAD1 (Homo sapiens, UniProt Q9ULC6); assay: Substrate activity with PAD1
T2 sequence (Q9ULC6 1-663): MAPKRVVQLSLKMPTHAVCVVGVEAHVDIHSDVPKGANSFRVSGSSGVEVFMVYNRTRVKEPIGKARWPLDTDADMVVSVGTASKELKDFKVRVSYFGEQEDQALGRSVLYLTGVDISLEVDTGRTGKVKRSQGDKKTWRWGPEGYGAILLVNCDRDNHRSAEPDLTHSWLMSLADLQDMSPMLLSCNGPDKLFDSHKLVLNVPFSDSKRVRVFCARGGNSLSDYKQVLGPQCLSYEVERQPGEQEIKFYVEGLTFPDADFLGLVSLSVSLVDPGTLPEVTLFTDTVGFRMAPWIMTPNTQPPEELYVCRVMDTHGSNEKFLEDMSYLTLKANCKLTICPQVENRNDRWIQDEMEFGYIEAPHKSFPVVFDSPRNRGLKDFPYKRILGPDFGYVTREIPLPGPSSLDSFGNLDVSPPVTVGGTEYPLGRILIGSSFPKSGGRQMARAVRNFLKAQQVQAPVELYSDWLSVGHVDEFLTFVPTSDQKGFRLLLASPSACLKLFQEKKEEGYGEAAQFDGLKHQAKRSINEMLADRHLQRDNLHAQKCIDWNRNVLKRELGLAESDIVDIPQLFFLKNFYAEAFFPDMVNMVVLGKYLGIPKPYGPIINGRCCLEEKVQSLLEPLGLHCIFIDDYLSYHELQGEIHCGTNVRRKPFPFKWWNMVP

PAD3 [3] = target: T3, PAD3 (Homo sapiens, UniProt Q9ULW8); assay: Substrate activity with PAD3
T3 sequence (Q9ULW8 1-664): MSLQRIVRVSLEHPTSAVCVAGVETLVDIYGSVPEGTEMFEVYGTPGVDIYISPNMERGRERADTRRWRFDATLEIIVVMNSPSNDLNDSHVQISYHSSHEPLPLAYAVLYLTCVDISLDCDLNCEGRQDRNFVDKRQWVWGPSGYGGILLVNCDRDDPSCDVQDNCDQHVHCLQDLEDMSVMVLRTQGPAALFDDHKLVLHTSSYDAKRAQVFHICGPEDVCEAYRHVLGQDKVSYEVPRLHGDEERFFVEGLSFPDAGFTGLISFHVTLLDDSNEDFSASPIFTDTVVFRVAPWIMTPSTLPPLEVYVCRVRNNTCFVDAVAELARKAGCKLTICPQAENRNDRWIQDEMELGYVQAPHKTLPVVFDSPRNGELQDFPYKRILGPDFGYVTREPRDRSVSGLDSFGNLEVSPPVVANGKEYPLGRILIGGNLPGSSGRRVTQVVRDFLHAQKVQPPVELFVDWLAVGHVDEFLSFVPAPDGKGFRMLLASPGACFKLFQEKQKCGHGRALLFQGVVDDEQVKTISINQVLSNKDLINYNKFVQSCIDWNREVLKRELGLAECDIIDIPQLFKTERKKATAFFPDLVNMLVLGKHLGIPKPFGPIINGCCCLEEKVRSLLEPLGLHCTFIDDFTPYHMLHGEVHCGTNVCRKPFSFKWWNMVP

PAD4 [4] = target: T4, PAD4 (Homo sapiens, UniProt Q9UM07); assay: Substrate activity with PAD4
PAD4 [5] = target: T4, PAD4; assay: Substrate protection experiments; type: biochemical; conditions: two different concentrations of substrate
PAD4 [6] = target: T4, PAD4; assay: Dialysis of PAD4•inactivator complex; type: biochemical; conditions: excess inhibitor, 20 h of dialysis
PAD4 R639Q mutant = assay: IC50 with PAD4 R639Q mutant; conditions: relative to wild type PAD4
PAD4 Q346A mutant = assay: IC50 with PAD4 Q346A mutant; conditions: relative to wild type PAD4
PAD3 [7] = target: T3, PAD3; assay: PAD3 inhibition, IC50 determination; type: biochemical; conditions: read-out: IC50 PAD3
PAD4 R374Q mutant = assay: IC50 with PAD4 R374Q mutant; conditions: relative to wild type PAD4
PAD4 [8] = target: T4, PAD4; assay: PAD4 inhibition, IC50 determination
PAD1 [9] = target: T2, PAD1; assay: PAD1 inhibition, IC50 determination; type: biochemical; conditions: read-out: IC50 PAD1
PAD2 [10] = target: T1, PAD2; assay: PAD2 inhibition, IC50 determination; type: biochemical; conditions: read-out: IC50 PAD2
PAD1 [11] = target: T2, PAD1; conditions: read-out: IC50 PAD1; first generation inhibitors; cited from earlier work
PAD3 [12] = target: T3, PAD3; conditions: read-out: IC50 PAD3; first generation inhibitors; cited from earlier work
[13] = animal models of RA, UC, and neuron degeneration; cited from earlier work

T4 sequence (Q9UM07 whole entry): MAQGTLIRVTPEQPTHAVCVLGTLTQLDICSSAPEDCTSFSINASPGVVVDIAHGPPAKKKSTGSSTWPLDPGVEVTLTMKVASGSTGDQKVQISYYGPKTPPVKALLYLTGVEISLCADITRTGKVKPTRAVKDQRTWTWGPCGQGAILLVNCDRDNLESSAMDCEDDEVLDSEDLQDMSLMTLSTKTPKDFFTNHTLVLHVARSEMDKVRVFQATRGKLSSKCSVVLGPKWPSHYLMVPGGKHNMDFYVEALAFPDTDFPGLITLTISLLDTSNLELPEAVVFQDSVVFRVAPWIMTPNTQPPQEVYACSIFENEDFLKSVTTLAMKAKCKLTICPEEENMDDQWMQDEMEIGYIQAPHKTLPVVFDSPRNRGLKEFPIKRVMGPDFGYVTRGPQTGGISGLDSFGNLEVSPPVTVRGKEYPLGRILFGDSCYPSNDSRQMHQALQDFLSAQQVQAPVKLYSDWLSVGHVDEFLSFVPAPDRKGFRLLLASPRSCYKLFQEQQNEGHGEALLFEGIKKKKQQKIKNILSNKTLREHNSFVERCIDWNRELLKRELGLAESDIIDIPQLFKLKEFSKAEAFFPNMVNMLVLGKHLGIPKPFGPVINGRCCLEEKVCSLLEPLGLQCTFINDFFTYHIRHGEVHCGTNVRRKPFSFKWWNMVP
T1 sequence (Q9Y2J8 whole entry): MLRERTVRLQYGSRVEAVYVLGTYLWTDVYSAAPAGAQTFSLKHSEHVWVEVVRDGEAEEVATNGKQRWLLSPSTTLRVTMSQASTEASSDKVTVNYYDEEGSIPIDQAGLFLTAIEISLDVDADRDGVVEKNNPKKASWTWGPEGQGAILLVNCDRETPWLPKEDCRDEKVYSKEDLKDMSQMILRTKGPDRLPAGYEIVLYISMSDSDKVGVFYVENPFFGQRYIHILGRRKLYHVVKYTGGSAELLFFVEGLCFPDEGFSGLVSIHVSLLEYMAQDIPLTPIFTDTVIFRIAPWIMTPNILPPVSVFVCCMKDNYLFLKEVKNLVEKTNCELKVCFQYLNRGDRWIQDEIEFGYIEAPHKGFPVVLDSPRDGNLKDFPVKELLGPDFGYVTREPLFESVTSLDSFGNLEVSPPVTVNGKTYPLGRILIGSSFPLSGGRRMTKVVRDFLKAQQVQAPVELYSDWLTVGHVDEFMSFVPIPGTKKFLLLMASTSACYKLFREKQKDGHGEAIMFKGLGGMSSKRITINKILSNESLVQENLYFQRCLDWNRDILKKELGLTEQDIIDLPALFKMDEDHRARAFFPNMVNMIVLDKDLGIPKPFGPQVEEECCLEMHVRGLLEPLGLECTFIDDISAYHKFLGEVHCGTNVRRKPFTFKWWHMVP

Question: For “Ac-Threonine-Aspartate-Arginine-NH2 [Ac-TDR-NH2]”, which “substrate quality for PAD2” value (PAD2 [1]) is on record?
Answer: Its value is “relatively poor”.

Question: What about the “substrate quality for PAD1” value (PAD1 [2]) of the same molecule?
Answer: The value was “excellent substrate”.

Question: And the “substrate quality for PAD3” value (PAD3 [3])?
Answer: Its value is “relatively poor”.

Question: What about the “substrate quality for PAD4” value (PAD4 [4]) of the same molecule?
Answer: Its value is “excellent substrate”.

Question: For CC(=O)N[C@H](C(=O)N[C@@H](CC(=O)O)C(=O)N[C@@H](CCCN=C(N)CF)C(N)=O)[C@@H](C)O [TDFA, Thr-Asp-F-amidine], which “rates of inactivation at the higher concentration of substrate” value (PAD4 [5]) is on record?
Answer: Its value is “considerably lower”.

Question: And the “recovery of PAD4 activity after dialysis” value (PAD4 [6])?
Answer: The value was “no recovery of activity”.

Question: What about the “increase of IC50 with R639Q mutant” value (PAD4 R639Q mutant) of the same molecule?
Answer: Its value is 2.9 fold.

Question: What about the “increase of IC50 with Q346A mutant” value (PAD4 Q346A mutant) of the same molecule?
Answer: The value was 1.9 fold.

Question: And the IC50 (PAD3 [7])?
Answer: Its IC50 is 26 ± 7.4 µM.

Question: What about the “increase of IC50 with R374Q mutant” value (PAD4 R374Q mutant) of the same molecule?
Answer: Its value is 5.2 fold.

Question: And the “selectivity for PAD4 relative to the other PADs, based on IC50 values” (PAD4 [8])?
Answer: The value was ≥ 4 fold.

Question: And the “enhancement in potency relative to F-amidine (IC50)” value (PAD4 [8]; PAD4)?
Answer: Its value is ~ 10 fold.

Question: And the IC50 (PAD4 [8]; read-out: IC50 PAD4)?
Answer: Its IC50 is 2.3 ± 0.2 µM.

Question: And the IC50 (PAD1 [9])?
Answer: Its IC50 is 8.5 ± 0.8 µM.

Question: And the IC50 (PAD2 [10])?
Answer: The IC50 was 71 ± 4.4 µM.

Question: Which IC50 (PAD1 [11]) does the source give for NC(=O)[C@H](CCCN=C(N)CF)NC(=O)c1ccccc1 [F-amidine] here?
Answer: Its IC50 is 30 ± 1.3 µM.

Question: What about the IC50 (PAD3 [12]) of the same molecule?
Answer: The IC50 was ≥ 350 µM.

Question: With N=C(CCl)NCCC[C@H](NC(=O)c1ccccc1)C(N)=O [Cl-amidine, N-alpha-benzoyl-N5-(2-chloro-1-iminoethyl)-L-ornithine amide] as the molecule, how does the “effect on disease severity in animal models” value [13] read?
Answer: The value was “reduces disease severity”.
